The assay addresses T1, influenza A virus (IAV) PA-Nter fragment (amino acids 1-209) (Influenza A virus, UniProt P31343).
T1 construct: PA-Nter fragment (amino acids 1-209); made in house
Kind of assay: FRET endonuclease activity assay. The assay is classed as biochemical. As to conditions: 0.5 μM PA-Nter, 1.6 μM dual-labelled RNA substrate; IC50 from initial reaction velocities (v0).

`CC(C)N1CCn2c(Cc3ccc(Cl)cc3-c3ccc(F)cc3)nc(=O)c(O)c2C1=O` came in with an IC50 of 0.436 µM.
With `O=C1NCCn2c(CC3(c4cccc5ccccc45)CCCC3)nc(=O)c(O)c21` [drawing 722], the IC50 was determined as 0.16 µM.
As for `CC(C)N1CCn2c(Cc3ccccc3-c3cccc(F)c3F)nc(=O)c(O)c2C1=O`, the figure is 0.2 µM; as for `CC(C)N1CCn2c(Cc3ccccc3-c3ccc(Cl)c(Cl)c3)nc(=O)c(O)c2C1=O`, 2.51 µM.
Turning to `O=C1c2c(O)c(=O)nc(CC3(c4ccc(Cl)cc4)CCCC3)n2CCN1CC1CC1`, the IC50 came out at 0.205 µM.
The compound `CN1CCn2c(CC3(n4ccc5cccnc54)CCCC3)nc(=O)c(O)c2C1=O` returned an IC50 of 0.08 µM. This IC50 lies about 2.6-fold lower than the previous one.
In the case of `CC(C)N1CCn2c(CC3(c4cccc(Cl)c4)CCCC3)nc(=O)c(O)c2C1=O` it was 0.32 µM; in that of `CC(C)N1CCn2c(Cc3ccccc3-c3ccccc3Cl)nc(=O)c(O)c2C1=O`, 0.657 µM; in that of `O=C1NCCn2c(CC3(c4ccc(Cl)cc4)CCCC3)nc(=O)c(O)c21`, 1.27 µM.
As for `CC(C)N1CCn2c(CC3(c4cc(Cl)ccc4Cl)CCCC3)nc(=O)c(O)c2C1=O`, the figure is 0.295 µM; as for `O=C1NCCn2c(Cc3ccccc3-c3ccccc3)nc(=O)c(O)c21`, 0.06 µM; as for `CC(N1CCn2c(CC3(c4ccc(Cl)cc4)CCCC3)nc(=O)c(O)c2C1=O)C(F)(F)F` (centres unmarked), 0.296 µM.
`CC(C)(C)CN1CCn2c(CC3(c4ccccc4)CCCC3)nc(=O)c(O)c2C1=O`: the IC50 was 0.143 µM. This IC50 lies about 2.1-fold lower than the previous one.
In the case of `CC(C)N1CCn2c([C@@H]3CCC[C@@H]3c3ccccc3)nc(=O)c(O)c2C1=O` it was 0.5 µM; in that of `CC(c1ccccc1)N1CCn2c(CC3(c4ccc(Cl)cc4)CCCC3)nc(=O)c(O)c2C1=O` (centres unmarked), 1.13 µM.
In the case of `CC(C)N1CCn2c(Cc3ccc(Cl)cc3-c3cccc(F)c3)nc(=O)c(O)c2C1=O` it was 0.058 µM.
As for `CC(C)N1CCn2c(CC3(c4cc(C(F)(F)F)cc(C(F)(F)F)c4)CCCC3)nc(=O)c(O)c2C1=O`, the figure is 0.318 µM.
In the case of `O=C1c2c(OCc3ccccc3)c(=O)nc(CC3(c4ccccc4)CCCC3)n2CCN1C1CCOCC1`, the IC50 is above 25 µM.
In the case of `CC(C)N1CCn2c(CC3(c4cccc5ccccc45)CCCC3)nc(=O)c(O)c2C1=O` it was 0.27 µM; in that of `O=C1c2c(O)c(=O)nc(CC3(c4ccccc4)CCCC3)n2CCN1C1CC1`, 0.098 µM; in that of `CC(c1ccccc1-c1ccccc1)c1nc(=O)c(O)c2n1CCN(C(C)C)C2=O` (centres unmarked), 1.7 µM.
As to `COc1ccc(-c2ccccc2)c(Cc2nc(=O)c(O)c3n2CCN(C(C)C)C3=O)c1`, the IC50 was determined as 0.43 µM. Compared with the last compound, the IC50 is about 4-fold lower.
In the case of `CC(C)N1CCn2c(Cc3ccc(Cl)cc3-c3ccc(Cl)cc3)nc(=O)c(O)c2C1=O` it was 0.266 µM.
In the case of `CC(C)N1CCn2c([C@H]3CCC[C@H]3c3ccccc3)nc(=O)c(O)c2C1=O` it was 0.23 µM; in that of `CC(C)N1CCn2c(Cc3ccccc3-c3ccc(OC(F)(F)F)cc3)nc(=O)c(O)c2C1=O`, 0.55 µM.
As for `CN1CCn2c(CC3(c4cccc5ccccc45)CCCC3)nc(=O)c(O)c2C1=O`, the figure is 0.11 µM; as for `O=C1c2c(O)c(=O)nc(CC3(c4cccc5ccccc45)CCCC3)n2CCN1C1CC1`, 0.104 µM; as for `O=C1c2c(OCc3ccccc3)c(=O)nc(CC3(c4ccc(Cl)cc4)CCCC3)n2CCN1CC1CC1`, above 25 µM.
Compound `CC(C)N1CCn2c(Cc3ccccc3-c3ccncc3)nc(=O)c(O)c2C1=O` yielded an IC50 of 0.094 µM. That is a double-digit nanomolar value.
Consider `CC(C)N1CCn2c(CC3(c4ccc(Cl)cc4)CCCC3)nc(=O)c(O)c2C1=O`, for which half-maximal inhibition (IC50) was put at 0.252 µM.
As to `CC(C)N1CCn2c(Cc3ccccc3-c3cccc(F)c3)nc(=O)c(O)c2C1=O`, the IC50 was determined as 0.38 µM. Against the preceding compound, the IC50 is about 1.5-fold higher.
In the case of `CC(C)N1CCn2c(CC3(c4ccccn4)CCCC3)nc(=O)c(O)c2C1=O` it was 0.097 µM.
The compound `CC(C)N1CCn2c(Cc3ccccc3-c3ccc4c(c3)OCO4)nc(=O)c(O)c2C1=O` displayed an IC50 of 0.229 µM.
The compound `CC(C)N1CCn2c(Cc3cc(O)ccc3-c3ccccc3)nc(=O)c(O)c2C1=O` displayed an IC50 of 0.146 µM.
As for `CC(C)N1CCn2c(CC3(c4ccc(Cl)c(Cl)c4)CCCC3)nc(=O)c(O)c2C1=O`, the figure is 0.61 µM; as for `CC(C)N1CCn2c(Cc3ccccc3-c3cccc(Cl)c3Cl)nc(=O)c(O)c2C1=O`, 0.37 µM.
In turn, `O=C1c2c(O)c(=O)nc(CC3(c4ccccc4)CCCC3)n2CCN1CC1CC1` yielded an IC50 of 0.138 µM.
Consider `CC(C)N1CCn2c(CC3(c4ccc(C(F)(F)F)cc4)CCCC3)nc(=O)c(O)c2C1=O`, for which the IC50 was 0.262 µM.
As for `CC(C)N1CCn2c(CC3(c4ccccc4)CCC(F)(F)CC3)nc(=O)c(O)c2C1=O`, the IC50 was 0.084 µM. Compared with the last compound, the IC50 is about 3.1-fold lower.
The compound `O=C1c2c(O)c(=O)nc(CC3(c4cccc5ccccc45)CCCC3)n2CCN1CC1CC1` yielded an IC50 of 0.14 µM.
In the case of `CN1CCn2c(Cc3ccccc3-c3ccccc3Cl)nc(=O)c(O)c2C1=O` it was 0.175 µM; in that of `CSc1ccc(-c2ccccc2Cc2nc(=O)c(O)c3n2CCN(C(C)C)C3=O)cc1`, 0.116 µM.
As for `O=C1c2c(O)c(=O)nc(CC3(c4ccc(Cl)cc4)CCCC3)n2CCN1C1CC1`, the figure is 0.73 µM; as for `O=C1c2c(O)c(=O)nc(CC3(c4ccccc4)CCCC3)n2CCN1C1COC1`, 0.134 µM; as for `O=C1c2c(O)c(=O)nc(CC3(c4ccccc4)CCCC3)n2CCN1Cc1ccc(F)cc1`, 0.422 µM.
As for `CC(C)N1CCn2c(CC3(n4ccc5cccnc54)CCCC3)nc(=O)c(O)c2C1=O`, the figure is 0.02 µM; as for `O=C1c2c(O)c(=O)nc(CC3(c4ccc(Cl)cc4)CCCC3)n2CCN1C1CCOCC1`, 0.06 µM.
Consider `CC(C)N1CCn2c(CC3(c4ccccc4)CCCC3)nc(=O)c(O)c2C1=O`, for which the IC50 is 0.093 µM.
For `O=C1c2c(O)c(=O)nc(CC3(c4ccccc4)CCCC3)n2CCN1C1CCOCC1`, the IC50 stood at 0.043 µM. This IC50 is about 2.2-fold lower than that of the compound before.
In the case of `CC(C)N1CCn2c(Cc3ccc(Cl)cc3Br)nc(=O)c(OCc3ccccc3)c2C1=O` it was above 25 µM.
For the compound `CC(C)N1CCn2c(CC3(c4cccc(C(F)(F)F)c4)CCCC3)nc(=O)c(O)c2C1=O`, the IC50 was 0.46 µM.
Consider `O=C1c2c(O)c(=O)nc(CC3(c4cccc5ccccc45)CCCC3)n2CCN1Cc1ccccc1`, for which inhibition was half-maximal at 0.67 µM (IC50).
In the case of `CC(C)N1CCn2c(Cc3cccc4ccccc34)nc(=O)c(O)c2C1=O` it was 1.81 µM.
`COc1ccc(-c2ccccc2Cc2nc(=O)c(O)c3n2CCN(C(C)C)C3=O)cc1`: 0.122 µM corresponded to half-maximal inhibition (IC50).
In the case of `CN1CCn2c(CC3(c4ccccn4)CCCC3)nc(=O)c(O)c2C1=O` it was 0.063 µM; in that of `CN1CCn2c(CC3(c4ccc(Cl)cc4)CCCC3)nc(=O)c(O)c2C1=O`, 0.16 µM; in that of `CC(C)N1CCn2c(Cc3ccccc3-c3ccc(C(F)(F)F)c(F)c3)nc(=O)c(O)c2C1=O`, 0.38 µM.
As for `O=C1c2c(O)c(=O)nc(CC3(c4ccccc4)CCCC3)n2CCN1C1CCCC1`, the figure is 0.521 µM; as for `CC(C)N1CCn2c(CC(C)(C)n3ccc4ccccc43)nc(=O)c(O)c2C1=O`, 0.24 µM; as for `CC(C)N1CCn2c(Cc3ccccc3C3CCCCC3)nc(=O)c(O)c2C1=O`, 0.114 µM.
As for `CC(C)c1ccc(-c2ccccc2Cc2nc(=O)c(O)c3n2CCN(C(C)C)C3=O)cc1`, the figure is 0.7 µM; as for `O=C1c2c(O)c(=O)nc(CC3(c4ccc(Cl)cc4)CCCC3)n2CCN1Cc1ccccc1`, 0.99 µM.
Compound `O=C1c2c(O)c(=O)nc(CC3(n4ccc5cccnc54)CCCC3)n2CCN1C1CC1` showed an IC50 of 0.092 µM.
In turn, `CC(C)N1CCn2c(Cc3cccc(Cl)c3Cl)nc(=O)c(O)c2C1=O` gave an IC50 of 0.35 µM.
In the case of `CC(C)N1CCn2c(Cc3c(Cl)cccc3Cl)nc(=O)c(O)c2C1=O` [drawing 10] it was 0.392 µM.
With `O=C1c2c(O)c(=O)nc(CC3(n4ccc5cccnc54)CCCC3)n2CCN1C1COC1`, the IC50 came to 0.108 µM.
The compound `CC(C)N1CCn2c(CC(C)(C)c3ccccc3)nc(=O)c(O)c2C1=O` had an IC50 of 0.25 µM.
In turn, `CC(C)N1CCn2c(Cc3c(Cl)cccc3Cl)nc(=O)c(O)c2C1=O` [drawing 18] yielded an IC50 of 0.39 µM. This IC50 is about 1.6-fold higher than that of the compound before.
For `CC(C)N1CCn2c(Cc3ccc(Cl)cc3-c3ccncc3)nc(=O)c(O)c2C1=O`, the concentration for half-maximal inhibition (IC50) was 0.11 µM.
Compound `CC(C)N1CCn2c(Cc3ccccc3-c3ccc(Cl)cc3)nc(=O)c(O)c2C1=O` registered an IC50 of 1.37 µM.
Compound `CC(C)N1CCn2c(Cc3ccccc3-c3ccc(C(F)(F)F)cc3)nc(=O)c(O)c2C1=O` registered an IC50 of 0.32 µM.
The compound `CC(C)N1CCn2c(CC3(c4ccc(C#N)cc4)CCCC3)nc(=O)c(O)c2C1=O` displayed an IC50 of 0.041 µM.
As for `CC(C)N1CCn2c(CC3(c4ccccc4)CCCCC3)nc(=O)c(O)c2C1=O`, the figure is 0.12 µM.
In turn, `CC(C)N1CCn2c(Cc3ccccc3-c3ccccc3)nc(=O)c(O)c2C1=O` had an IC50 of 0.196 µM.
As for `CC(C)N1CCn2c(Cc3cscc3-c3ccccc3)nc(=O)c(O)c2C1=O`, the midpoint of inhibition, the IC50, lay at 1.39 µM.
The compound `O=C1NCCn2c(CC3(c4cccc5ccccc45)CCCC3)nc(=O)c(O)c21` [drawing 712] registered an IC50 of 0.162 µM.
Turning to `CC(C)N1CCn2c(CC3(c4ccc5ccccc5c4)CCCC3)nc(=O)c(O)c2C1=O`, the IC50 is 0.11 µM. This IC50 and that of the compound before are within 1.5-fold of each other.
In the case of `O=C1c2c(O)c(=O)nc(CC3(n4ccc5cccnc54)CCCC3)n2CCN1C1CCC1` it was 0.173 µM; in that of `O=C1c2c(O)c(=O)nc(CC3(c4ccccc4)CCCC3)n2CCN1C1CCC1`, 0.102 µM; in that of `CC(C)N1CCn2c(Cc3ncccc3-c3ccccc3)nc(=O)c(O)c2C1=O`, 0.38 µM.
As for `O=C1c2c(O)c(=O)nc(CC3(c4cccc5ccccc45)CCCC3)n2CCN1C1COC1`, the figure is above 25 µM; as for `CC(C)N1CCn2c(Cc3ccccc3-c3ccc(F)c(F)c3)nc(=O)c(O)c2C1=O`, 1.06 µM; as for `CC(C)N1CCn2c(-c3ccccn3)nc(=O)c(O)c2C1=O`, 1.89 µM.
In the case of `O=C1c2c(OCc3ccccc3)c(=O)nc(CC3(n4ccc5cccnc54)CCCC3)n2CCN1CC1CC1` it was above 25 µM; in that of `CC(C)N1CCn2c(Cc3ccccc3-c3ccc(F)cc3)nc(=O)c(O)c2C1=O`, 1.55 µM; in that of `CC(C)N1CCn2c(Cc3ccccc3-c3ccc(C#N)cc3)nc(=O)c(O)c2C1=O`, 0.3 µM.

The values are drawn from US9045486B2, “Pyrimidone derivatives and their use in the treatment, amelioration or prevention of a viral disease” (priority 2013, dated 2015).
